Experiment [1] addresses T1, AKT2 (Homo sapiens, UniProt P31751).
T1 construct: expressed in transfected cells; host or cells: HEK293
Kind of experiment: Live cell AKT2 target engagement by NanoBRET competitive probe displacement in HEK293 cells. It is filed as binding. To be noted: 2 h at 37° C., read-out: AKT2 IC50. On the technique in general: BRET reads energy transfer from a luciferase to a nearby fluorophore.

Experiment [2] has as its target T2, AKT1 WT (Homo sapiens, UniProt P31749).
T2 construct: expressed in transfected cells; host or cells: HEK293
Kind of experiment: Live cell AKT1 WT target engagement by NanoBRET competitive probe displacement in HEK293 cells. It counts as binding. Conditions: 2 h at 37° C., read-out: AKT1 WT IC50.

The mark [3] stands for this setting: NanoBRET competitive probe displacement, live HEK293 cells.
The mark [4] stands for this setting: NanoBRET live cell target engagement, HEK293 cells.

The values that follow come from patent US12624034B2, “Non-covalent modifiers of AKT1 and uses thereof” (Terremoto Biosciences, Inc., priority 2023, dated 2026).

Structures are written as SMILES. Like-named read-outs stand apart in the source and are kept apart here.

By IC50 is commonly meant the point on the concentration scale where inhibition reaches its midpoint.

T2 sequence (P31749 whole entry): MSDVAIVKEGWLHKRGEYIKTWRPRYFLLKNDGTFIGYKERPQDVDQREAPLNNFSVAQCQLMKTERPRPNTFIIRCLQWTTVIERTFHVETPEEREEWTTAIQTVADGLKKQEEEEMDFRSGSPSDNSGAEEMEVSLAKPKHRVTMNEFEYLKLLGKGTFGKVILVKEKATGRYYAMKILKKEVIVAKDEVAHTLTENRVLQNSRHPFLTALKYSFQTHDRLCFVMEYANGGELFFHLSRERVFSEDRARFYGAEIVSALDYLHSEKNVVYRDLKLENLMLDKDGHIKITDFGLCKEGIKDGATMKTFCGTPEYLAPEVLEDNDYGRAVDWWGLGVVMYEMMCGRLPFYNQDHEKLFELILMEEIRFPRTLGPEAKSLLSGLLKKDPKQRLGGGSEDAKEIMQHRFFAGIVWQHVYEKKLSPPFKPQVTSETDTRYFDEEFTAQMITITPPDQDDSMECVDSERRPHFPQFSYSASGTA
T1 sequence (P31751 whole entry): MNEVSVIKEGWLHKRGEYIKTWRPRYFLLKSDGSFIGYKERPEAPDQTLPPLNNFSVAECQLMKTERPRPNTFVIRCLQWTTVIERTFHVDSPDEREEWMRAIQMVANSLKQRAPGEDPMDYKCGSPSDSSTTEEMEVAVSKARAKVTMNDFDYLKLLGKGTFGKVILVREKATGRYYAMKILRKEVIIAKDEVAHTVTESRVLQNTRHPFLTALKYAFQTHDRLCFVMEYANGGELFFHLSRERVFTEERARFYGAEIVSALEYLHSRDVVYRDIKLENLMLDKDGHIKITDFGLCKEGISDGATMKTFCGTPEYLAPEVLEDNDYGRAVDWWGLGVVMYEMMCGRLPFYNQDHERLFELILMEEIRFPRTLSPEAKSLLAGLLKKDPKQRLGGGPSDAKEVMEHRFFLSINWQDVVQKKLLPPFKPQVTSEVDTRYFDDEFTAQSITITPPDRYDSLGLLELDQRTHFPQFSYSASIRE

For `CN(C)c1ccn(-c2ccc3nc(-c4cccnc4N)n(-c4ccc5c(c4)CC[C@@H]5NC4CCN(c5ccn(C)n5)CC4)c3n2)n1` [Compound 589], the IC50 came out at 650 nM in experiment [1] (setting [3]) and 16.8 nM in experiment [2] (setting [3]).

For `Cc1cnc(-c2ccc3nc(-c4cccnc4N)n(-c4ccc5c(c4)CC[C@@H]5n4ccnn4)c3n2)s1` [Compound 303], the IC50 worked out at 1720 nM in experiment [1] (setting [4]) and 45.6 nM in experiment [2] (setting [4]).

Turning to `Cc1ncccc1C(=O)N[C@H]1CCc2cc(-n3c(-c4cccnc4N)nc4ccc(N5CCOCC5)nc43)ccc21` [Compound 135], the IC50 in experiment [1] (setting [4]) was 1110 nM; in experiment [2] (setting [4]), 83.1 nM.

As for `CN1CC(c2cn([C@H]3CCc4cc(-n5c(-c6cccnc6N)nc6ccc(-n7cccn7)nc65)ccc43)nn2)C1` [Compound 251], the IC50 in experiment [1] (setting [4]) turned out to be 5810 nM; in experiment [2] (setting [4]), 363 nM.

For the compound `Nc1ccc(C(=O)N[C@H]2CCc3cc(-n4c(-c5cccnc5N)nc5ccc(-n6cccn6)nc54)ccc32)cn1` [Compound 311], the 50% inhibitory concentration (IC50) in experiment [1] (setting [4]) came to 191 nM; in experiment [2] (setting [4]), 19.1 nM.

Take `Cc1cc(-n2cccn2)nc2c1nc(-c1cccnc1N)n2-c1ccc2c(c1)CC[C@@H]2NC(=O)c1ccc(C(F)F)nc1` [Compound 101]: the figures for the IC50 in experiment [1] (setting [4]) and in experiment [2] (setting [4]) were 8.02 nM and 11.9 nM, respectively.

For `COc1ccn(-c2ccc3nc(-c4cccnc4N)n(-c4ccc5c(c4)CC[C@@H]5NC4[C@@H]5COC[C@H]4CN(C(=O)C4CC4)C5)c3n2)n1` (single isomer, unassigned) [Compound 524], the values for the IC50 in experiment [1] (setting [3]) and in experiment [2] (setting [3]) were 1740 nM and 48.4 nM, respectively.

With `Nc1ncccc1-c1nc2ccc(-n3cccn3)nc2n1-c1ccc2c(c1)CC[C@@H]2NC(=O)c1ccnc(F)c1` [Compound 295], the IC50 in experiment [1] (setting [4]) is 81.3 nM; in experiment [2] (setting [4]), 5.59 nM.

Consider `COc1cnn(-c2ccc3nc(-c4cccnc4N)n(-c4ccc5c(c4)CC[C@@H]5NC(=O)c4cnc(C(F)F)s4)c3n2)n1` [Compound 594], for which the IC50 in experiment [1] (setting [3]) amounted to 2690 nM; in experiment [2] (setting [3]) it was 27.6 nM.

In the case of `Nc1ncccc1-c1nc2ccc(-n3ccc(Oc4cccnc4)n3)nc2n1-c1ccc2c(c1)CC[C@@H]2NC1CCN(C(=O)C2CC2)CC1` [Compound 568], the IC50 was 458 nM in experiment [1] (setting [3]) and 8.72 nM in experiment [2] (setting [3]).

On to `CN1CCC(n2ccc(-c3ccc4nc(-c5cccnc5N)n(-c5ccc6c(c5)CC[C@@H]6NC5CCN(C(=O)C6CC6)CC5)c4n3)n2)CC1` [Compound 570], for which the IC50 was found to be 679 nM in experiment [1] (setting [3]) and 47.5 nM in experiment [2] (setting [3]).

`Nc1ncccc1-c1nc2ccc(-n3cccn3)nc2n1-c1ccc2c(c1)CC[C@@H]2n1cc(C2CCO2)nn1` (stereo partly drawn) [Compound 354]: the concentration for half-maximal inhibition (IC50) in experiment [1] (setting [4]) worked out at 900 nM; in experiment [2] (setting [4]), 39.8 nM.

Regarding `Nc1ncccc1-c1nc2ccc(-n3cccn3)nc2n1-c1ccc2c(c1)CC[C@@H]2NC(=O)c1ccc2[nH]c(=O)oc2c1` [Compound 191], the IC50 was determined as 78.6 nM in experiment [1] (setting [4]) and 9.23 nM in experiment [2] (setting [4]).

Turning to `Nc1ncccc1-c1nc2ccc(-n3cccn3)nc2n1-c1ccc2c(c1)CC[C@@H]2NC1CCN(C(=O)C2CC2)C1` (stereo partly drawn) [Compound 461], the values for the IC50 in experiment [1] (setting [3]) and in experiment [2] (setting [3]) were 3030 nM and 109 nM, respectively.

In the case of `Cc1coc(-c2ccc3nc(-c4cccnc4N)n(-c4ccc5c(c4)CC[C@@H]5NC(=O)c4nccnc4C)c3n2)n1` [Compound 244], the IC50 in experiment [1] (setting [4]) was above 10000 nM; in experiment [2] (setting [4]), 221 nM.

With `COc1cc2c(cn1)CCC2N[C@H]1CCc2cc(-n3c(-c4cccnc4N)nc4ccc(-n5cccn5)nc43)ccc21` (stereo partly drawn) [Compound 510], the IC50 in experiment [1] (setting [3]) turned out to be 262 nM; in experiment [2] (setting [3]), 14.6 nM.

Take `Nc1ncccc1-c1nc2ccc(-n3cccn3)nc2n1-c1ccc2c(c1)CC[C@@H]2NC(=O)c1ccc(C(F)(F)F)nc1` [Compound 77]: the IC50 in experiment [1] (setting [4]) was found to be 50.1 nM; in experiment [2] (setting [4]) it was 13.6 nM.

With `Nc1ncccc1-c1nc2ccc(-n3nccn3)nc2n1-c1ccc2c(c1)CC(F)[C@@H]2NC1CCN(C(=O)C2CC2)CC1` (stereo partly drawn) [Compound 532], the IC50 in experiment [1] (setting [3]) is above 10000 nM; in experiment [2] (setting [3]), 177 nM.

As for `Cc1ncccc1C(=O)N[C@H]1CCc2cc(-n3c(-c4cccnc4N)nc4ccc(-n5nccn5)nc43)ccc21` [Compound 93], the figures for the IC50 in experiment [1] (setting [4]) and in experiment [2] (setting [4]) were 1790 nM and 38.8 nM, respectively.

With `Cc1cnc(C)c(C(=O)N[C@H]2CCc3cc(-n4c(-c5cccnc5N)nc5ccc(-n6cccn6)nc54)ccc32)c1` [Compound 137], the IC50 in experiment [1] (setting [4]) was found to be 174 nM; in experiment [2] (setting [4]) it was 21.5 nM.

Turning to `Nc1ncccc1-c1nc2ccc(-n3cccn3)nc2n1-c1ccc2c(c1)CC[C@@H]2NC1CCN(C(=O)C2CC2)CC1F` (stereo partly drawn) [Compound 444], the IC50 in experiment [1] (setting [3]) is 499 nM; in experiment [2] (setting [3]), 23.5 nM.

Turning to `Cc1ccc(C(=O)N[C@H]2CCc3cc(-n4c(-c5cccnc5N)nc5ccc(-n6cccn6)nc54)ccc32)c(C)n1` [Compound 69], the values for the IC50 in experiment [1] (setting [4]) and in experiment [2] (setting [4]) were 71.6 nM and 10.9 nM, respectively.

In the case of `CN1Cc2cc(C(=O)N[C@H]3CCc4cc(-n5c(-c6cccnc6N)nc6ccc(-n7cccn7)nc65)ccc43)cnc2C1` [Compound 112], the values for the IC50 in experiment [1] (setting [4]) and in experiment [2] (setting [4]) were 52.7 nM and 9.53 nM, respectively.

Turning to `CNS(=O)(=O)c1cccc(C(=O)N[C@H]2CCc3cc(-n4c(-c5cccnc5N)nc5ccc(-n6cccn6)nc54)ccc32)c1` [Compound 239], the IC50 in experiment [1] (setting [4]) is 1090 nM; in experiment [2] (setting [4]) it was 117 nM.

As for `COc1cccc(-c2ccc3nc(-c4cccnc4N)n(-c4ccc5c(c4)CC(F)[C@@H]5NC4CCN(C(=O)C5CC5)CC4)c3n2)n1` (stereo partly drawn) [Compound 545], the values for the IC50 in experiment [1] (setting [3]) and in experiment [2] (setting [3]) were 730 nM and 20.8 nM, respectively.

As for `COc1ccn(-c2ccc3nc(-c4cccnc4N)n(-c4ccc5c(c4)CC[C@@H]5NC4CCN(C(=O)C5CC5)CC4F)c3n2)n1` (stereo partly drawn) [Compound 513], the IC50 was 240 nM in experiment [1] (setting [3]) and 13.9 nM in experiment [2] (setting [3]).

As to `COc1cc(C(=O)N[C@H]2CCc3cc(-n4c(-c5cccnc5N)nc5ccc(-n6cccn6)nc54)ccc32)ccc1O` [Compound 260], the figures for the IC50 in experiment [1] (setting [4]) and in experiment [2] (setting [4]) were 164 nM and 7.55 nM, respectively.

Consider `Nc1ncccc1-c1nc2ccc(-n3cccn3)nc2n1-c1ccc2c(c1)CC[C@@H]2n1cc(C2CCO2)nn1` (stereo partly drawn) [Compound 353], for which the figures for the IC50 in experiment [1] (setting [4]) and in experiment [2] (setting [4]) were 1270 nM and 25 nM, respectively.

Regarding `CN(C(=O)N[C@H]1CCc2cc(-n3c(-c4cccnc4N)nc4ccc(-n5cccn5)nc43)ccc21)c1ccccc1` [Compound 132, (S)-3-(5-(2-(2-aminopyridin-3-yl)-5-(1H-pyrazol-1-yl)-3H-imidazo[4,5-b]pyridin-3-yl)-2,3-dihydro-1H-inden-1-yl)-1-methyl-1-phenylurea], the IC50 in experiment [1] (setting [4]) was 2550 nM; in experiment [2] (setting [4]) it was above 1000 nM.

As to `Cc1cnsc1C(=O)N[C@H]1CCc2cc(-n3c(-c4cccnc4N)nc4ccc(-n5cccn5)nc43)ccc21` [Compound 451], the IC50 came to 198 nM in experiment [1] (setting [3]) and 8.14 nM in experiment [2] (setting [3]).

Consider `COc1cc2c(cn1)CCC2N[C@H]1CCc2cc(-n3c(-c4cccnc4N)nc4ccc(-n5cccn5)nc43)ccc21` (stereo partly drawn) [Compound 511], for which the IC50 in experiment [1] (setting [3]) was 196 nM; in experiment [2] (setting [3]), 10.4 nM.

In the case of `CC#Cc1ccc2nc(-c3cccnc3N)n(-c3ccc4c(c3)CC[C@@H]4NC(=O)c3ccc(C(F)F)nc3)c2n1` [Compound 405], the figures for the IC50 in experiment [1] (setting [3]) and in experiment [2] (setting [3]) were 1580 nM and 46.2 nM, respectively.

On to `C#Cc1cc(C(=O)N[C@H]2CCc3cc(-n4c(-c5cccnc5N)nc5ccc(-n6cccn6)nc54)ccc32)ccn1` [Compound 105], for which the IC50 in experiment [1] (setting [4]) was 109 nM; in experiment [2] (setting [4]), 11.2 nM.
